Data set [1] has as its system PKB Ser473 phosphorylation in Rat1-myr-HA-p110 alpha cells. Description: Reverse protein array, PKB Ser473 phosphorylation in Rat1-myr-HA-p110 alpha cells. The format is cell-based. Particulars: Rattus norvegicus, 0.5 h, 30 minutes compound incubation, read-out: p-PKB/IC50_alpha.
A short description of data set [2]: Parallel Artificial Membrane Permeability Assay (PAMPA) at pH 6.8. It counts as physicochemical. The procedure, abridged:
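PAMPA permeability measured at pH 6.8 following the Wohnsland and Faller method; value reported as log Pe.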

A short description of data set [3]: High-throughput equilibrium solubility at pH 6.8. The format is physicochemical. The settings on record: pH 6.8, aqueous buffer, thermodynamic from solid; read-out: HT-Eq Sol/pH 6.8. The procedure, abridged:
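Solubility was measured at pH 6.8 following the cited Zhou et al. (2007) procedure.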

Structures are written as SMILES. ≈ marks a conversion by molar mass, not a printed value.

For `COc1nc(N2CCNCC2)ccc1-n1c(=O)n(C)c2cnc3ccc(-c4cnc(N(C)C)nc4)cc3c21` [Example 9.4, 8-(2-Dimethylamino-pyrimidin-5-yl)-1-(2-methoxy-6-piperazin-1-yl-pyridin-3-yl)-3-methyl-1,3-dihydro-imidazo[4,5-c]quinolin-2-one], in data set [1], the IC50 is 18 nM. Also, the “HT-Perm logPe pH6.8” value in data set [2] is −6.1. The solubility thermodynamic in data set [3] is greater than 512 µg/mL.
For `CCNc1cc(-c2ccc3ncc4c(c3c2)n(-c2ccc(OC)nc2C)c(=O)n4C)cnc1C` [Example 11.7, 8-(5-Ethylamino-6-methyl-pyridin-3-yl)-1-(6-methoxy-2-methyl-pyridin-3-yl)-3-methyl-1,3-dihydro-imidazo[4,5-c]quinolin-2-one], the IC50 in data set [1] was found to be 4.9 nM. Moreover, in data set [2], the “HT-Perm logPe pH6.8” value is recorded as −3.7. In addition, the solubility thermodynamic in data set [3] was 3 µg/mL (≈ 6.6 µM).
With `COc1ccc(-n2c(=O)n(C)c3cnc4ccc(-c5cnc(CO)c(OC)c5)cc4c32)c(C)n1` [Example 11.8, 8-(6-Hydroxymethyl-5-methoxy-pyridin-3-yl)-1-(6-methoxy-2-methyl-pyridin-3-yl)-3-methyl-1,3-dihydro-imidazo[4,5-c]quinolin-2-one], in data set [1], the IC50 is 7.8 nM. The “HT-Perm logPe pH6.8” value in data set [2] is given as −3.9. Further, in data set [3], the solubility thermodynamic amounted to 26 µg/mL (≈ 56.8 µM).
Taken in the same sequence, the figures for `CCNc1cc(-c2ccc3ncc4c(c3c2)n(-c2ccc(N(C)CC)nc2C)c(=O)n4C)cnc1C` [Example 12.2, 8-(5-Ethylamino-6-methyl-pyridin-3-yl)-1-[6-(ethyl-methyl-amino)-2-methyl-pyridin-3-yl]-3-methyl-1,3-dihydro-imidazo[4,5-c]quinolin-2-one] were less than 4.57 nM, −4 and 5 µg/mL (≈ 10.4 µM).
For the compound `CCOc1ccc(-c2ccc3ncc4c(c3c2)n(-c2ccc(OCCOC)nc2C)c(=O)n4C)cn1` [Example 13.1, 8-(6-Ethoxy-pyridin-3-yl)-1-[6-(2-methoxy-ethoxy)-2-methyl-pyridin-3-yl]-3-methyl-1,3-dihydro-imidazo[4,5-c]quinolin-2-one], the IC50 in data set [1] was determined as 17 nM. In addition, the “HT-Perm logPe pH6.8” value in data set [2] is on record as −4. For the same compound, the solubility thermodynamic in data set [3] was 3 µg/mL (≈ 6.18 µM).
As to `COCCOc1ccc(-n2c(=O)n(C)c3cnc4ccc(-c5cnc(N)c(C(F)(F)F)c5)cc4c32)c(C)n1` [Example 13.2, 8-(6-Amino-5-trifluoromethyl-pyridin-3-yl)-1-[6-(2-methoxy-ethoxy)-2-methyl-pyridin-3-yl]-3-methyl-1,3-dihydro-imidazo[4,5-c]quinolin-2-one], in data set [1], the IC50 is less than 4.57 nM. The “HT-Perm logPe pH6.8” value in data set [2] is −3.7. Besides, the solubility thermodynamic in data set [3] amounted to 27 µg/mL (≈ 51.5 µM).
Regarding `CNc1ccc(-c2ccc3ncc4c(c3c2)n(-c2ccc(OCCOC)nc2C)c(=O)n4C)cn1` [Example 13.3, 1-[6-(2-Methoxy-ethoxy)-2-methyl-pyridin-3-yl]-3-methyl-8-(6-methylamino-pyridin-3-yl)-1,3-dihydro-imidazo[4,5-c]quinolin-2-one], the IC50 in data set [1] was determined as 5 nM. Also, the “HT-Perm logPe pH6.8” value in data set [2] was −4. The solubility thermodynamic in data set [3] was found to be 10 µg/mL (≈ 21.3 µM).
The like results for `CCNc1cc(-c2ccc3ncc4c(c3c2)n(-c2ccc(OCCOC)nc2C)c(=O)n4C)cnc1C` [Example 13.4, 8-(5-Ethylamino-6-methyl-pyridin-3-yl)-1-[6-(2-methoxy-ethoxy)-2-methyl-pyridin-3-yl]-3-methyl-1,3-dihydro-imidazo[4,5-c]quinolin-2-one] were, in that order, less than 4.57 nM, −4.1 and 7 µg/mL (≈ 14 µM).
Take `CNc1ncc(-c2ccc3ncc4c(c3c2)n(-c2ccc(OCCOC)nc2C)c(=O)n4C)cn1` [Example 13.5, 1-[6-(2-Methoxy-ethoxy)-2-methyl-pyridin-3-yl]-3-methyl-8-(2-methylamino-pyrimidin-5-yl)-1,3-dihydro-imidazo[4,5-c]quinolin-2-one]: the IC50 in data set [1] was found to be 6.9 nM. Further, in data set [2], the “HT-Perm logPe pH6.8” value was −4.3. Besides, in data set [3], the solubility thermodynamic was 15 µg/mL (≈ 31.8 µM).
In the case of `CCOc1ccc(-c2ccc3ncc4c(c3c2)n(-c2ccc(C)nc2C)c(=O)n4C)cn1` [Example 14.2, 1-(2,6-Dimethyl-pyridin-3-yl)-8-(6-ethoxy-pyridin-3-yl)-3-methyl-1,3-dihydro-imidazo[4,5-c]quinolin-2-one], in data set [1], the IC50 came out at 20.4 nM. Besides, in data set [2], the “HT-Perm logPe pH6.8” value is on record as −3.8. The solubility thermodynamic in data set [3] came out at 4 µg/mL (≈ 9.4 µM).
The like results for `Cc1ccc(-n2c(=O)n(C)c3cnc4ccc(-c5cnc(N(C)C)nc5)cc4c32)c(C)n1` [Example 14.3, 8-(2-Dimethylamino-pyrimidin-5-yl)-1-(2,6-dimethyl-pyridin-3-yl)-3-methyl-1,3-dihydro-imidazo[4,5-c]quinolin-2-one] were, in that order, 39 nM, −3.8 and 7 µg/mL (≈ 16.5 µM).
The like results for `CNc1ncc(-c2ccc3ncc4c(c3c2)n(-c2ccc(C)nc2C)c(=O)n4C)cn1` [Example 14.4, 1-(2,6-Dimethyl-pyridin-3-yl)-3-methyl-8-(2-methylamino-pyrimidin-5-yl)-1,3-dihydro-imidazo[4,5-c]quinolin-2-one] were, in that order, 16.2 nM, −4.6 and 8 µg/mL (≈ 19.4 µM).
Taken in the same sequence, the figures for `CCNc1cc(-c2ccc3ncc4c(c3c2)n(-c2ccc(C)nc2C)c(=O)n4C)cnc1C` [Example 14.6, 1-(2,6-Dimethyl-pyridin-3-yl)-8-(5-ethylamino-6-methyl-pyridin-3-yl)-3-methyl-1,3-dihydro-imidazo[4,5-c]quinolin-2-one] were 5.2 nM, −4.1 and 175 µg/mL (≈ 399 µM).
As to `Cc1ccc(-n2c(=O)n(C)c3cnc4ccc(-c5cncc(NC(C)C)c5)cc4c32)c(C)n1` [Example 14.8, 1-(2,6-Dimethyl-pyridin-3-yl)-8-(5-isopropylamino-pyridin-3-yl)-3-methyl-1,3-dihydro-imidazo[4,5-c]quinolin-2-one], the IC50 in data set [1] came to 9 nM. Moreover, the “HT-Perm logPe pH6.8” value in data set [2] was −4.1. For the same compound, the solubility thermodynamic in data set [3] came out at 12 µg/mL (≈ 27.4 µM).
The like results for `CNc1ncc(-c2ccc3ncc4c(c3c2)n(-c2ccc(N(C)CCOC)nc2C)c(=O)n4C)cn1` [Example 15.2, 1-{6-[(2-Methoxy-ethyl)-methyl-amino]-2-methyl-pyridin-3-yl}-3-methyl-8-(2-methylamino-pyrimidin-5-yl)-1,3-dihydro-imidazo[4,5-c]quinolin-2-one] were, in that order, 5 nM, −3.9 and 81 µg/mL (≈ 167 µM).
For the compound `CCNc1cc(-c2ccc3ncc4c(c3c2)n(-c2ccc(N(C)CCOC)nc2C)c(=O)n4C)cnc1C` [Example 15.6, 8-(5-Ethylamino-6-methyl-pyridin-3-yl)-1-{6-[(2-methoxy-ethyl)-methyl-amino]-2-methyl-pyridin-3-yl}-3-methyl-1,3-dihydro-imidazo[4,5-c]quinolin-2-one], in data set [1], the IC50 stood at 4.8 nM. Besides, in data set [2], the “HT-Perm logPe pH6.8” value is −3.6. In addition, in data set [3], the solubility thermodynamic worked out at 140 µg/mL (≈ 274 µM).
Taken in the same sequence, the figures for `COCCN(C)c1ccc(-n2c(=O)n(C)c3cnc4ccc(-c5cnc6c(ccn6C)c5)cc4c32)c(C)n1` [Example 15.7, 1-{6-[(2-Methoxy-ethyl)-methyl-amino]-2-methyl-pyridin-3-yl}-3-methyl-8-(1-methyl-1H-pyrrolo[2,3-b]pyridin-5-yl)-1,3-dihydro-imidazo[4,5-c]quinolin-2-one] were 9.6 nM, −3.9 and 4 µg/mL (≈ 7.88 µM).
Regarding `COCCN(C)c1ccc(-n2c(=O)n(C)c3cnc4ccc(-c5cncc(N)c5)cc4c32)c(C)n1` [Example 15.8, 8-(5-Amino-pyridin-3-yl)-1-{6-[(2-methoxy-ethyl)-methyl-amino]-2-methyl-pyridin-3-yl}-3-methyl-1,3-dihydro-imidazo[4,5-c]quinolin-2-one], the IC50 in data set [1] was determined as 5.1 nM. Besides, the “HT-Perm logPe pH6.8” value in data set [2] is −5.1. In addition, the solubility thermodynamic in data set [3] was found to be 56 µg/mL (≈ 119 µM).
Taken in the same sequence, the figures for `Cc1cc(F)ncc1-n1c(=O)n(C)c2cnc3ccc(-c4cnc(N)c(C(F)(F)F)c4)cc3c21` [Example 16.1, 8-(6-Amino-5-trifluoromethyl-pyridin-3-yl)-1-(6-fluoro-4-methyl-pyridin-3-yl)-3-methyl-1,3-dihydro-imidazo[4,5-c]quinolin-2-one] were 13.3 nM, −3.7 and 3 µg/mL (≈ 6.4 µM).
For the compound `CCNc1cc(-c2ccc3ncc4c(c3c2)n(-c2cnc(F)cc2C)c(=O)n4C)cnc1C` [Example 16.2, 8-(5-Ethylamino-6-methyl-pyridin-3-yl)-1-(6-fluoro-4-methyl-pyridin-3-yl)-3-methyl-1,3-dihydro-imidazo[4,5-c]quinolin-2-one], the IC50 in data set [1] worked out at 21.8 nM. Also, in data set [2], the “HT-Perm logPe pH6.8” value is on record as −3.8. For the same compound, the solubility thermodynamic in data set [3] stood at 70 µg/mL (≈ 158 µM).
Taken in the same sequence, the figures for `CNc1ncc(-c2ccc3ncc4c(c3c2)n(-c2cnc(F)cc2C)c(=O)n4C)cn1` [Example 16.3, 1-(6-Fluoro-4-methyl-pyridin-3-yl)-3-methyl-8-(2-methylamino-pyrimidin-5-yl)-1,3-dihydro-imidazo[4,5-c]quinolin-2-one] were 64.1 nM, −4.4 and 27 µg/mL (≈ 65 µM).
Taken in the same sequence, the figures for `CNc1ccc(-c2ccc3ncc4c(c3c2)n(-c2cnc(F)cc2C)c(=O)n4C)cn1` [Example 16.4, 1-(6-Fluoro-4-methyl-pyridin-3-yl)-3-methyl-8-(6-methylamino-pyridin-3-yl)-1,3-dihydro-imidazo[4,5-c]quinolin-2-one] were 30.7 nM, −4.2 and 55 µg/mL (≈ 133 µM).

Values taken from patent US20100311714A1, “1H-IMIDAZO[4,5-c]QUINOLINONE COMPOUNDS” (priority 2009, published 2010).
